# In paper PMC9308172 (Journal of medicinal chemistry, 2017):
# Where two headings read alike, the source gives them in different places.
# Assays:
# [1] = system: A/California/07/2009 (H1N1) M2: N31; details: cited from earlier work
# M2TMWT [2] = target: T1, M2TMWT (Influenza A virus, UniProt P0DOF5); details: cited from earlier work
# M2TMWT [3] = target: T1, M2TMWT; assay type: binding
# T1 sequence (P0DOF5 22-46 limits assumed): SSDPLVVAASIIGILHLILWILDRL
Structure (SMILES),% block after 3 min [1],% block after 30 min [1],TΔS (M2TMWT [2]),ΔG (M2TMWT [2]),ΔH (M2TMWT [2]),ΔG (M2TMWT [3])
CCCC1(N)C2CC3CC(C2)CC1C3 (stereo not drawn) [Compound 5],0 ± 5 (100 μM; 2) %,"9 ± 10 (100 μM, 3) %",3.90 ± 1.45 kJ/mol,-36.43 ± 0.69 kJ/mol,-32.62 ± 1.29 kJ/mol,–
CCC1(N)C2CC3CC(C2)CC1C3 (stereo not drawn) [Compound 4],–,–,5.77 ± 1.05 kJ/mol,-35.65 ± 0.54 kJ/mol,-29.87 ± 0.88 kJ/mol,–
NC1(C23CC4CC(CC(C4)C2)C3)CCCC1 [Compound 9],–,–,–,–,–,-27.77 ± 0.79 kJ/mol
C1CNC2(C1)C1CC3CC(C1)CC2C3 (stereo not drawn) [Compound 6],–,–,16.61 ± 2.57 kJ/mol,-38.11 ± 1.84 kJ/mol,-21.49 ± 1.76 kJ/mol,–
NC1C2CC3CC(C2)CC1C3 (stereo not drawn) [Compound 2],13 ± 3 (100 μM; 2) %,16 (100 μM; 1) %,3.89 ± 1.84 kJ/mol,-33.30 ± 0.54 kJ/mol,-29.41 ± 1.76 kJ/mol,–
CC1(N)C2CC3CC(C2)CC1C3 (stereo not drawn) [Compound 3],–,–,6.32 ± 1.21 kJ/mol,-34.77 ± 0.54 kJ/mol,-28.41 ± 1.09 kJ/mol,–
"NC12CC3CC(CC(C3)C1)C2 [Compound 1, Amantadine, reference compound]",14 ± 2 (100 μM; 26) %,–,4.64 ± 2.18 kJ/mol,-32.51 ± 0.59 kJ/mol,-27.87 ± 2.09 kJ/mol,–
CN1CCCC12C1CC3CC(C1)CC2C3 (stereo not drawn) [Compound 7],–,–,18.66 ± 1.51 kJ/mol,-34.64 ± 0.96 kJ/mol,-15.98 ± 1.17 kJ/mol,–
"CC12CC3CC(CC(C3)C13CCCN3)C2 (stereo not drawn) [Compound 8, 1′-Methylspiro[pyrrolidine-2,2′-adamantane]]",–,–,12.55 ± 1.55 kJ/mol,-33.81 ± 0.84 kJ/mol,-21.25 ± 1.30 kJ/mol,–
